Experimental data from article PMC7793531 (International Journal of Molecular Sciences, 2020).
Starred links: 1 amine or outer side, 2 acyl side, 3 side chain; linkers in the order of their positions; H or OH if unused. Non-standard residues stand in square brackets, D forms with d. Residues, ends and D or L forms follow the SMILES beside them. Groups on a side chain read outwards from the residue. ξ: configuration not given here. *: point of attachment. Oic(3aξ,7aξ) = O=C(O)[C@@H]1CC2CCCCC2N1; X3 = N=C(N)NCCC[C@H](N)CN*; X2 = N=C(N)NCC[C@H](N)CN*; Orn = NCCC[C@H](N)C(=O)O; Dab = NCC[C@H](N)C(=O)O; CO = O=C([*:1])[*:2]

What was measured:
VEGF-A165/NRP-1 complex = molecular target: T1, VEGF-A165/NRP-1 complex (Homo sapiens, UniProt O14786); experiment: Competitive ELISA-like assay, inhibition of bt-VEGF-A165 binding to immobilized NRP-1; settings: recombinant human NRP-1, bt-VEGF-A165, chemiluminescence; read-out: IC50, VEGF-A165/NRP-1 complex inhibitory effect
T1 construct: purchased R&D Systems
T1 sequence (O14786 22-641 limits assumed): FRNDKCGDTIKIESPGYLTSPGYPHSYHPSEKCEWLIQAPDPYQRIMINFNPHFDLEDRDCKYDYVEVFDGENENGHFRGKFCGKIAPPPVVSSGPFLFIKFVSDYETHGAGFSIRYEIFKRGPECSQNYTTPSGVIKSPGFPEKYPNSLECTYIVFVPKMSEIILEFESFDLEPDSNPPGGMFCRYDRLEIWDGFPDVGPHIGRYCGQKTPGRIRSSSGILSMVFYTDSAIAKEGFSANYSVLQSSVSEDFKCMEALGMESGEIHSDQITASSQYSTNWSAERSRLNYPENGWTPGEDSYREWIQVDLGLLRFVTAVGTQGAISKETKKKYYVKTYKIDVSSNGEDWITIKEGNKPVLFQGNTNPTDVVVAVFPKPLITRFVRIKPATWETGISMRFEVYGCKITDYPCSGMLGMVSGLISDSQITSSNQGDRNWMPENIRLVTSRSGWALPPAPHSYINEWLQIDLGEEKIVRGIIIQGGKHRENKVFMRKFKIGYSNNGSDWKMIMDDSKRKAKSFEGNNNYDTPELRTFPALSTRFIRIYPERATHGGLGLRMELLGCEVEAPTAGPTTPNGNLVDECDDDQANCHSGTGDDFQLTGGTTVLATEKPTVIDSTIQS
Description: Inhibitory activity of urea–peptide hybrids against VEGF-A165/NRP-1 complex formation was assessed with a screening ELISA-like assay. NRP-1 was immobilized on microplate wells by simple adsorption and urea–peptide hybrids competed for NRP-1 with biotinylated VEGF-A165 (bt-VEGF-A165). The amount of receptor bound bt-VEGF-A165 was visualized by its interaction with the streptavidin–horseradish peroxidase conjugate (strep-HRP) and the chemiluminescent substrate. The first analyzed group of compounds were analogues 1–3 with the urea bond between L1 and L2. […] The best hybrid in this group was compound 3, which had Lys^U (gDab) branching (where “g” corresponds to guanidinium group), but its IC50 value decreased only 2-fold. Therefore, we assume that no additional interactions between urea bond and the surface of the protein occurred. […] In the case of urea–peptide hybrids, the urea bond might be capable of forming additional hydrogen bonds with protein residues on the surface of NRP-1. The affinity of compounds may conceivably be affected by the colocation of the urea bond and the free amino group of hArg in the branching. In addition, for compounds 4–6, we can observe that decreasing the distance between the free amino group in the main chain and the urea bond in the branching has a positive effect on compounds’ affinity for NRP-1.
This method was previously described for NRP-1 [44, 45, 46]. Briefly, overnight coating at 4 °C of the flat bottom surface of a 96-well plate with 100 μL (200 ng/well) recombinant human NRP-1, NRP-2, VEGFR-1 or VEGFR-2 was followed by non-specific interactions blocking using 0.5% bovine serum albumin (BSA) in PBS. Next, 50 µL of urea–peptide hybrid in PBS and 50 µL (400 ng/mL) of human (bt)-VEGF-A165 in PBS containing 4 µg/mL of heparin were added respectively. Plates were incubated for 2 h at RT, and then washed and treated with streptavidin-horseradish peroxidase conjugate in PBS (1:8000). Next, 100 µL chemiluminescent substrate was added, and luminescence was quantified using Tecan Infinite F200Pro microplate reader (Männedorf, Switzerland). In a positive control (P) only (bt)-VEGF-A165 was present in wells. Not coated by receptor wells were treated as a negative control (N). Percentages of inhibition were calculated by the following formula:100% − [[(S − N)/(P − N)]∙100%](1) where S is the signal intensity measured in wells with urea–peptide hybrid. The IC50 of each urea–peptide hybrid was calculated using the nonlinear regression function with GraphPad Prism Version-5.01 (GraphPad Software, San Diego, CA, USA). Data are presented as log (inhibitor) versus normalized response-variable slope (Figure S16). Data are the means ± SEMs of two or three independent experiments, each performed in triplicate.

[1] = test system: NRP-1 expression on MDA-MB-231 breast cancer cells; experiment: Labelled urea-peptide hybrid binding assay at 37 °C, time course of NRP-1 cell surface expression (FACS); type: cell-based, human
Description: Usually, in the presence of its natural ligand, a transmembrane receptor at the cell surface may induce signaling, internalization of complex and recycling at the cell surface. […] Thus, to identify the mechanism of action of the hybrid 10 on the NRP-1 expression on cells, we followed its expression after a time course exposure of cells at 37 °C. […] This intriguing result focused our attention on tracking the level of expression intensity of NRP-1 on the surfaced of MDA-MB-231 cells exposed on compound 10. […] The median fluorescent intensity after 1 h (T60) of cell exposure on hybrid 10 was 1.5-fold higher than after 5 min of incubation (Figure 7b). […] This hypothesis is strengthened here, since MDA-MB-231 expressed a large amount of NRP-1 at the cell surface, but also had plenty of the cytoplasmic counterpart, reaching a maximum of median fluorescence intensity higher than the restricted level of NRP-1 expression at the surface (Figure 7c).
(§1) Cells were harvested using a mix of EDTA/Trypsin buffer (Invitrogen, France) to detach cells from plastic after 5 min exposure at 37 °C. […] After washing with PBS containing 2% FCS, stained cells were analyzed using BD FACSCalibur^TM (San Jose, CA, USA) and FlowJo^TM cell analysis software (FlowJo LLC, Ashland, OR, USA). […]

[2] = test system: NRP-1-positive breast cancer cells (MDA-MB-231); experiment: Labelled urea-peptide hybrid binding assay at 4 °C on cells (FACS), with NRP-1 co-staining; type: cell-based, human
Excerpt: VEGF-A165 binds to cell-surface NRP-1 on endothelial cells, effectively reducing surface levels of this receptor, promoting complex internalization and possibly inducing biological effects. Based on this mechanism, peptide carriers for selective drug delivery, such as iRGD peptides, have been recently disclosed. The iRGDs are used to selectively address potential therapeutic agents, e.g., doxorubicin or siRNAs inside malignant cells. We tested our tagged urea–peptide hybrid’s ability to bind human NRP-1-positive breast cancer cells (MDA-MB-231), which expressed large amount of NRP-1 at the cell surface (Figure 6a). A broad range of concentrations between 0 to 100 µg/mL of compound 10 was used to show its binding capacity on cells using fluorescence-activated cell sorting (FACS). […] To follow the impact of the ligation of this peptidomimetic on NRP-1 expression, we verified whether hybrid 10 binding interferes with the antibody used to detect NRP-1. […]
as §1

[3] = In vitro enzymatic stability in human blood serum (LC-SWATH-MS); type: in vitro ADME; settings: human blood serum (pooled from four healthy persons), 37 °C
Description: Rapid renal clearance and enzymatic degradation are classified as most important disadvantages of peptides as drugs. Covalent linkage to plasma proteins or chemical modifications, including amide bond modifications, might improve their half-lives. We performed proteolytic stability studies in human blood serum to investigate whether the introduction of urea bonds affected the half-lives of compounds from each of synthesized group of hybrids. Compounds 3, 6 and 7 were incubated with human serum at 37 °C. Samples were taken at different time intervals and analyzed using LC-SWATH-MS [88, 89, 90]. […] Hybrids 6 and 7 were stable toward enzymatic degradation, with 50% of each compound still being intact after 96 h (Figure 5). […] Overall, it can be concluded that the substitution of an amide bond with a urea bond has a positive effect on the proteolytic stability of the examined inhibitors.
The study was conducted in full accordance with ethical principles in accordance with the ICH E6 (R2) Guideline for Good Clinical Practice and the Code of Good Customs in Science developed by the Polish Academy of Sciences. Signed consent for using serum was obtained from volunteers. The Rector’s Commission for Ethics of Scientific Research with Human Participation, University of Warsaw, Warsaw, Poland gave the ethical approval (approval number 51/2020). Human blood from four healthy persons was directly drawn into evacuated tubes and left undisturbed at room temperature for 1 h to clot. Tubes were centrifuged at 2500× g for 10 min to prevent possible platelet activation. Serum was pipetted out of the blood collection tubes, pooled and collected in microtubes.
A degradation assay was adapted from a method described previously. Human blood serum was preactivated in Eppendorf ThermoMixer® Comfort (Hamburg, Germany) at 37 °C for 20 min (350 rpm). Next, 20 μL of aqueous urea–peptide hybrid stock solution was added to give ∼750 μg/mL final compound concentration, and incubation was continued. At selected time intervals, 50 μL of the mixture was collected and quenched by adding 200 μL of ACN:H2O:FA mixture (89:10:1, v:v:v). The obtained suspension was vortexed for 1 min (3000 min^−1) and centrifuged for 10 min in 4 °C (11,000× g). 100 μL of supernatant was collected and lyophilized. The samples reconstituted in 1 mL of 10 mM ammonium formate with 0.1% FA were subjected to LC-MS. Relative concentration at time intervals was calculated using peak area of either individual or most intense fragment of compound of interest. Analyst software version 1.7.1 was used for data acquisition, Peak View 2.2 and MultiQuant 2.1 (Sciex, ON) were used for data processing. Detailed analytical data can be found in Supplementary Materials (Figures S17–S45). […]

Row | Compound | IC50 (VEGF-A165/NRP-1 complex) | also measured
1 | 5/6-FAM-Dab(hArg^U)-Dab-Oic-Arg [Compound 10] | 4040 nM | median fluorescent intensity of NRP-1 after 1 h (T60) relative to 5 min of incubation ([1]; 100 µg/mL, 37 °C): 1.5 fold; effect on NRP-1 cell surface expression ([1]; time course at 37 °C, independently of time exposure): no downmodulation of NRP-1 expression; binding on cells ([2]; 0 to 100 µg/mL, FACS): dose-dependent; median fluorescence intensity of NRP-1 staining in presence of compound ([2]; 100 μg/ml, 4 °C, 94 in its absence): 88
2 | N=C(N)NCCCC[C@H](N)C(=O)NCC[C@H](N)CNC(=O)N[C@@H](CCN)C(=O)N1C2CCCCC2C[C@H]1C(=O)N[C@@H](CCCNC(=N)N)C(=O)O (stereo partly drawn) [Compound 1] | 1800 nM | –
3 | N=C(N)NCCC[C@H](NC(=O)[C@@H]1CC2CCCCC2N1C(=O)[C@H](CCN)NC(=O)NC[C@@H](N)CCCNC(=O)[C@@H](N)CCCNC(=N)N)C(=O)O (stereo partly drawn) [Compound 2] | 2100 nM | –
4 | N=C(N)NCCC[C@H](NC(=O)[C@@H]1CC2CCCCC2N1C(=O)[C@H](CCN)NC(=O)NC[C@@H](N)CCCCNC(=O)[C@@H](N)CCNC(=N)N)C(=O)O (stereo partly drawn) [Compound 3] | 1200 nM | remaining at 24 h ([3]; after 24 h, read-out: initial substrate concentration remaining): ~25%
5 | N=C(N)NCCC[C@H](NC(=O)[C@@H]1CC2CCCCC2N1C(=O)[C@H](CCN)NC(=O)[C@@H](N)CCCCNC(=O)NC[C@@H](N)CCNC(=N)N)C(=O)O (stereo partly drawn) [Compound 4] (H-K([CO-X2])[Dab][Oic(3aξ,7aξ)]R-OH) | 490 nM | –
6 | N=C(N)NCCC[C@H](N)CNC(=O)NCCC[C@H](N)C(=O)N[C@@H](CCN)C(=O)N1C2CCCCC2C[C@H]1C(=O)N[C@@H](CCCNC(=N)N)C(=O)O (stereo partly drawn) [Compound 5] (H-[Orn]([CO-X3])[Dab][Oic(3aξ,7aξ)]R-OH) | 360 nM | –
7 | N=C(N)NCCC[C@H](N)CNC(=O)NC[C@H](N)CNC(=O)N[C@@H](CCN)C(=O)N1C2CCCCC2C[C@H]1C(=O)N[C@@H](CCCNC(=N)N)C(=O)O (stereo partly drawn) [Compound 7] | 2100 nM | remaining at 96 h ([3]; after 96 h, read-out: compound still intact): 50%
8 | N=C(N)NCCC[C@H](NC(=O)[C@@H]1CC2CCCCC2N1C(=O)[C@H](CCN)NC(=O)NC[C@@H](N)CCNC(=O)NC[C@@H](N)CCNC(=N)N)C(=O)O (stereo partly drawn) [Compound 8] | 2100 nM | –
9 | N=C(N)NCCC[C@H](NC(=O)[C@@H]1CC2CCCCC2N1C(=O)[C@H](CCN)NC(=O)NC[C@@H](N)CCCNC(=O)NC[C@@H](N)CNC(=N)N)C(=O)O (stereo partly drawn) [Compound 9] | 1800 nM | –
